In patent publication US7741281B2, “Hepatitis C virus inhibitors” (Bristol-Myers Squibb Company, priority 2005, dated 2010):

Key:
[1] = target: T1, HCV NS3/4A protease complex, BMS strain (UniProt P27958, species not given/STRAIN_BMS); test: FRET peptide assay to monitor HCV NS3/4A proteolytic activity (BMS strain); format: biochemical, HCV genotype 1a; conditions: NS3/4A BMS strain; read-out: IC50 Activity Range
T1 construct: for H77 and J4L6S; fused on or other part: Three-lysine solubilizing tail at the end of NS4A, for the H77 and J4L6S constructs; Purification on Ni-NTA and the pET21b vector imply a His tag
Description: HCV NS3 protease complexes, derived from the BMS strain, H77 strain or J4L6S strain, were generated, as described below. These purified recombinant proteins were generated for use in a homogeneous assay (see below) to provide an indication of how effective compounds of the present disclosure would be in inhibiting HCV NS3 proteolytic activity.
Serum from an HCV-infected patient was obtained from Dr. T. Wright, San Francisco Hospital. An engineered full-length cDNA (compliment deoxyribonucleic acid) template of the HCV genome (BMS strain) was constructed from DNA fragments obtained by reverse transcription-PCR (RT-PCR) of serum RNA (ribonucleic acid) and using primers selected on the basis of homology between other genotype 1a strains. From the determination of the entire genome sequence, a genotype 1a was assigned to the HCV isolate according to the classification of Simmonds et al. (See P Simmonds, K A Rose, S Graham, S W Chan, F McOmish, B C Dow, E A Follett, P L Yap and H Marsden, J. Clin. Microbiol., 31(6), 1493-1503 (1993)). […] The infectious clones, H77 (1a genotype) and J4L6S (1b genotype) were obtained from R. Purcell (NIH) and the sequences are published in Genbank (AAB67036, see Yanagi, M., Purcell, R. H., Emerson, S. U. and Bukh, J. Proc. Natl. Acad. Sci. U.S.A. 94(16), 8738-8743 (1997); AF054247, see Yanagi, M., St Claire, M., Shapiro, M., Emerson, S. U., Purcell, R. H. and Bukh, J, Virology 244 (1), 161-172. (1998)).
The H77 and J4L6S strains were used for production of recombinant NS3/4A protease complexes. DNA encoding the recombinant HCV NS3/4A protease complex (amino acids 1027 to 1711) for these strains were manipulated as described by P. Gallinari et al. (see Gallinari P, Paolini C, Brennan D, Nardi C, Steinkuhler C, De Francesco R. Biochemistry. 38(17):5620-32, (1999)). Briefly, a three-lysine solubilizing tail was added at the 3′-end of the NS4A coding region. The cysteine in the P1 position of the NS4A-NS4B cleavage site (amino acid 1711) was changed to a glycine to avoid the proteolytic cleavage of the lysine tag. Furthermore, a cysteine to serine mutation was introduced by PCR at amino acid position 1454 to prevent the autolytic cleavage in the NS3 helicase domain. The variant DNA fragment was cloned in the pET21b bacterial expression vector (Novagen) and the NS3/4A complex was expressed in Escherichia. coli strain BL21 (DE3) (Invitrogen) following the protocol described by P. Gallinari et al. (see Gallinari P, Brennan D, Nardi C, Brunetti M, Tomei L, Steinkuhler C, De Francesco R., J Virol. 72(8):6758-69 (1998)) with modifications. Briefly, the NS3/4A protease complex expression was induced with 0.5 millimolar (mM) Isopropyl β-D-1-thiogalactopyranoside (IPTG) for 22 hours (h) at 20° C. A typical fermentation (1 Liter (L)) yielded approximately 10 grams (g) of wet cell paste. The cells were resuspended in lysis buffer (10 mL/g) consisting of 25 mM N-(2-Hydroxyethyl)Piperazine-N′-(2-Ethane Sulfonic acid) (HEPES), pH 7.5, 20% glycerol, 500 mM Sodium Chloride (NaCl), 0.5% Triton X-100, 1 microgram/milliliter (“μg/mL”) lysozyme, 5 mM Magnesium Chloride (MgCl2), 1 μg/ml DnaseI, 5 mM β-Mercaptoethanol (βME), Protease inhibitor-Ethylenediamine Tetraacetic acid (EDTA) free (Roche), homogenized and incubated for 20 minutes (min) at 4° C. The homogenate was sonicated and clarified by ultra-centrifugation at 235000 g for 1 h at 4° C. Imidazole was added to the supernatant to a final concentration of 15 mM and the pH adjusted to 8.0. The crude protein extract was loaded on a Nickel-Nitrilotriacetic acid (Ni-NTA) column pre-equilibrated with buffer B (25 mM HEPES, pH 8.0, 20% glycerol, 500 mM NaCl, 0.5% Triton X-100, 15 mM imidazole, 5 mM βME). The sample was loaded at a flow rate of 1 mL/min. The column was washed with 15 column volumes of buffer C (same as buffer B except with 0.2% Triton X-100). The protein was eluted with 5 column volumes of buffer D (same as buffer C except with 200 mM Imidazole). […]

[2] = tested on: HCV replicon in HUH-7 cells; test: HCV replicon FRET assay; format: cell-based, HCV strain 1b; conditions: Hepatitis C virus, Huh-7; HCV replicon; read-out: EC50 Activity Range
Description: An HCV replicon whole cell system was established as described by Lohmann V, Korner F, Koch J, Herian U, Theilmann L, Bartenschlager R., Science 285(5424):110-3 (1999). This system enabled us to evaluate the effects of our HCV Protease compounds on HCV RNA replication. Briefly, using the HCV strain 1b sequence described in the Lohmann paper (Assession number: AJ238799), an HCV cDNA was synthesized by Operon Technologies, Inc. (Alameda, Calif.), and the full-length replicon was then assembled in plasmid pGem9zf(+) (Promega, Madison, Wis.) using standard molecular biology techniques. The replicon consists of (i) the HCV 5′ UTR fused to the first 12 amino acids of the capsid protein, (ii) the neomycin phosphotransferase gene (neo), (iii) the IRES from encephalomyocarditis virus (EMCV), and (iv) HCV NS3 to NS5B genes and the HCV 3′ UTR. Plasmid DNAs were linearized with ScaI and RNA transcripts were synthesized in vitro using the T7 MegaScript transcription kit (Ambion, Austin, Tex.) according to manufacturer's directions. In vitro transcripts of the cDNA were transfected into the human hepatoma cell line, HUH-7. […] Resulting cell lines were characterized for positive and negative strand RNA production and protein production over time.
The HCV replicon FRET assay was developed to monitor the inhibitory effects of compounds described in the disclosure on HCV viral replication. HUH-7 cells, constitutively expressing the HCV replicon, were grown in Dulbecco's Modified Eagle Media (DMEM) (Gibco-BRL) containing 10% Fetal calf serum (FCS) (Sigma) and 1 mg/ml G418 (Gibco-BRL). Cells were seeded the night before (1.5×10^4 cells/well) in 96-well tissue-culture sterile plates. Compound and no compound controls were prepared in DMEM containing 4% FCS, 1:100 Penicillin/Streptomysin (Gibco-BRL), 1:100 L-glutamine and 5% DMSO in the dilution plate (0.5% DMSO final concentration in the assay). Compound/DMSO mixes were added to the cells and incubated for 4 days at 37° C. After 4 days, cells were first assessed for cytotoxicity using alamar Blue (Trek Diagnotstic Systems) for a CC50 reading. The toxicity of compound (CC50) was determined by adding 1/10th volume of alamar Blue to the media incubating the cells. After 4 hours, the fluorescence signal from each well was read, with an excitation wavelength at 530 nm and an emission wavelength of 580 nm, using the Cytofluor Series 4000 (Perspective Biosystems). Plates were then rinsed thoroughly with Phosphate-Buffered Saline (PBS) (3 times 150 μl). The cells were lysed with 25 μl of a lysis assay reagent containing an HCV protease substrate (5× cell Luciferase cell culture lysis reagent (Promega #El 53A) diluted to 1× with distilled water, NaCl added to 150 mM final, the FRET peptide substrate (as described for the enzyme assay above) diluted to 10 μM final from a 2 mM stock in 100% DMSO. […]. The plate was then placed into the Cytofluor 4000 instrument which had been set to 340 nm excitation/490 nm emission, automatic mode for 21 cycles and the plate read in a kinetic mode. EC50 determinations were carried out as described for the IC50 determinations.

T1 sequence (P27958 1027-1657, change not shown, one chain of several): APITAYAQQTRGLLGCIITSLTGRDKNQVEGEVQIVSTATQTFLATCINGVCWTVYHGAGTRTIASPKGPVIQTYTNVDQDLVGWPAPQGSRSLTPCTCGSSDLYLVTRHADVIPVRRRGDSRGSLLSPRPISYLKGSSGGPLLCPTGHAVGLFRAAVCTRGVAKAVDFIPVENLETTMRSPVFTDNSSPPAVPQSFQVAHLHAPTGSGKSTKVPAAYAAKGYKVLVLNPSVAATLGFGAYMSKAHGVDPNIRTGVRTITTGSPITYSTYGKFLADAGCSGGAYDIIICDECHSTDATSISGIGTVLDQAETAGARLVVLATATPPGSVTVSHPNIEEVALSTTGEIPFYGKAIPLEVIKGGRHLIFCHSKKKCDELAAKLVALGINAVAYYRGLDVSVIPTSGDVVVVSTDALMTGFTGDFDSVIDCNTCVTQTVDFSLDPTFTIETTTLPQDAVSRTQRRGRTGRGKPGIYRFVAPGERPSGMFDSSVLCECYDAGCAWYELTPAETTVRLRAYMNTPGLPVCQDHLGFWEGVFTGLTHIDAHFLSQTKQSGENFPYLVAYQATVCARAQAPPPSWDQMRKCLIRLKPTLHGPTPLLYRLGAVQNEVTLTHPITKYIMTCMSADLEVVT

Structure (SMILES)	IC50 [1]	EC50 [2]	melting point
CC(C)(C)OC(=O)N[C@H]1CCCCC/C=C\[C@@H]2C[C@@]2(C(=O)NS(=O)(=O)C2CC2)NC(=O)[C@@H]2C[C@@H](Oc3ccccn3)CN2C1=O [Compound 1]	< 0.1 µM	0.1 to 1 µM	
CC(C)(C)OC(=O)N[C@H]1CCCCC/C=C\[C@@H]2C[C@@]2(C(=O)NS(=O)(=O)C2CC2)NC(=O)[C@@H]2C[C@@H](Oc3ccc([N+](=O)[O-])cc3)CN2C1=O [Compound 2]	< 0.1 µM	> 1 µM	
CC(C)(C)OC(=O)N[C@H]1CCCOC/C=C\[C@@H]2C[C@@]2(C(=O)NS(=O)(=O)C2CC2)NC(=O)[C@@H]2C[C@@H](OCc3ccccc3)CN2C1=O [Compound 5, (1S,4R,6S,14S,18R,7-cis)-18-benzyloxy-14-tert-butoxycarbonylamino-4-cyclopropanesulfonylaminocarbonyl-2,15-dioxo-3,16-diaza-10-oxatricyclo[14.3.0.0^4,6]nonadec-7-ene]	< 0.1 µM	> 1 µM	147 to 149 °C
CC(C)(C)OC(=O)N[C@H]1CCCOC/C=C\[C@@H]2C[C@@]2(C(=O)NS(=O)(=O)C2CC2)NC(=O)[C@@H]2C[C@@H](OC(C)(C)C)CN2C1=O [Compound 6, (1S,4R,6S,14S,18R,7-cis)-18-tert-butoxy-14-tert-butoxycarbonylamino-4-cyclopropanesulfonylaminocarbonyl-2,15-dioxo-3,16-diaza-10-oxatricyclo[14.3.0.0^4,6]nonadec-7-ene]	0.1 to 1 µM	> 1 µM	
